Laboratory results taken from patent publication US8883782B2, “Spiro-tetracyclic ring compounds as beta-secretase modulators and methods of use” (Amgen Inc., priority 2010, dated 2014).
Where two headings read alike, the source gives them in different places.

Assays:
[1] = target: Beta Secretase enzyme (BACE) (Homo sapiens, UniProt P56817); experiment: In vitro enzymatic BACE FRET (fluorescence resonance energy transfer) assay; type: biochemical
Procedure, shortened: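 Cleavage of a 50 nM fluorophore/quencher peptide FRET substrate by BACE for 1 h in 0.05 M acetate pH 4.2, 10% DMSO, 100 uM genapol. Reaction stopped with Tris to neutral pH before fluorescence reading.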

[2] = tested on: Aβ40 in conditioned medium of cells stably expressing Amyloid Precursor Protein (APP); experiment: In vitro BACE cell-based assay (Aβ40 in conditioned medium, sandwich ELISA)
Procedure, shortened: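 Step two: 10-point compound titration added, starting 100 μM or 10 μM, 0.1% DMSO. Step three: medium Aβ40 measured by ELISA, capture 3 h and detection 2 h at 4° C, TRF read.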

[3] = average IC50, enzyme assay, read-out: BACE 1 FRET assay
[4] = Homo sapiens, HEK293, average IC50, HEK cells, read-out: HEK cell assay

Sequence of Beta Secretase enzyme (BACE) (P56817 46-501, species assumed): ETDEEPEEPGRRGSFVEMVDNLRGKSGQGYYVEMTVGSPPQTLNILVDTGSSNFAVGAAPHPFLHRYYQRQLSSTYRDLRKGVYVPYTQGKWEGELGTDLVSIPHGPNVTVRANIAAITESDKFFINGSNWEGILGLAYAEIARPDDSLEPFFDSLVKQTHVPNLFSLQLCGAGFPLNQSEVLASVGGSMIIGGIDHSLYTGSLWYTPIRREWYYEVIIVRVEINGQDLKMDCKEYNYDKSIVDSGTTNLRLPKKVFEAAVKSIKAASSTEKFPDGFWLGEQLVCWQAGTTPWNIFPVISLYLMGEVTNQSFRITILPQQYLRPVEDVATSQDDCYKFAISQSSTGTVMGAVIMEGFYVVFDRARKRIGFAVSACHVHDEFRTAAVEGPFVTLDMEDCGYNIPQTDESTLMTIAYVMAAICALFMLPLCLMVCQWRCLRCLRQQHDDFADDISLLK

SMILES | IC50 [1, 3] [µM] | IC50 ([2]; average IC50, HEK cells, read-out: HEK cell assay) [µM] | IC50 [2, 4] [µM] | IC50 ([1]; BACE 1 FRET assay (uM)) [µM] | IC50 ([2]; Homo sapiens, HEK293, read-out: HEK cell assay (uM), average IC50, HEK cells) [µM]
CC(C)(C)COc1ccc2c(c1)[C@@]1(COC(N)=N1)c1cc(C3=CCOC(C)(C)C3)cnc1O2 [Example 507, (5S)-3-(2,2-dimethyl-3,6-dihydro-2H-pyran-4-yl)-7-(2,2-dimethylpropoxy)spiro[chromeno[2,3-b]pyridine-5,4′-[1,3]oxazol]-2′-amine] | 0.0056 | 0.031 |  |  | 
CC(C)(C)COc1ccc2c(c1)[C@]1(COC(N)=N1)c1c(ccc(-c3cncnc3)c1F)O2 [Example 515, (4R)-7′-(2,2-dimethylpropoxy)-1′-fluoro-2′-(5-pyrimidinyl)spiro[1,3-oxazole-4,9′-xanthen]-2-amine] | 0.0013 |  | 0.0285 |  | 
CC1(COc2ccc3c(c2Br)[C@]2(COC(N)=N2)c2cc(-c4cccnc4)ccc2O3)COC1 [Example 517, (4S)-1′-bromo-2′-((3-methyl-3-oxetanyl)methoxy)-7′-(3-pyridinyl)spiro[1,3-oxazole-4,9′-xanthen]-2-amine] | 0.0084 |  | 0.0205 |  | 
CC(C)(O)C#Cc1c(OCC2(C)COC2)ccc2c1[C@]1(COC(N)=N1)c1cc(-c3cccnc3)ccc1O2 [Example 518, 4-((4S)-2-amino-2′-((3-methyl-3-oxetanyl)methoxy)-7′-(3-pyridinyl)spiro[1,3-oxazole-4,9′-xanthen]-1′-yl)-2-methyl-3-butyn-2-ol] | 0.0755 |  | 0.0649 |  | 
NC1=N[C@@]2(CO1)c1cc(-c3cccnc3F)ccc1Oc1ncc(C#CC3(O)COC3)cc12 [Example 519, 3-(((5S)-2′-amino-7-(2-fluoro-3-pyridinyl)spiro[chromeno[2,3-b]pyridine-5,4′-[1,3]oxazol]-3-yl)ethynyl)-3-oxetanol] | 0.0032 |  | 0.0297 |  | 
NC1=N[C@@]2(CO1)c1cc(-c3cccnc3F)ccc1Oc1ncc(C#CC3(F)COC3)cc12 [Example 520, (5S)-3-((3-fluoro-3-oxetanyl)ethynyl)-7-(2-fluoro-3-pyridinyl)spiro[chromeno[2,3-b]pyridine-5,4′-[1,3]oxazol]-2′-amine] | 0.0014 |  | 0.0139 |  | 
NC1=NC2(CS1)c1cc(I)ccc1Oc1ncc(Br)cc12 (stereo not shown) [Example 522, 3-bromo-7-iodospiro[chromeno[2,3-b]pyridine-5,4′-[1,3]thiazol]-2′-amine] | 4.5 |  | 10 |  | 
NC1=N[C@@]2(CO1)c1cc(-c3cccc(Cl)c3)ccc1Oc1cnc(-c3cccc(Cl)c3)cc12 [Example 527, (5S)-3,7-bis(3-chlorophenyl)spiro[chromeno[2,3-c]pyridine-5,4′-[1,3]oxazol]-2′-amine] | 0.0015 |  | 0.612 |  | 
CN1CCN(c2cc3c(cn2)Oc2ccc(-c4cccnc4F)cc2[C@@]32COC(N)=N2)CC1(C)C [Example 529, (5S)-7-(2-fluoro-3-pyridinyl)-3-(3,3,4-trimethyl-1-piperazinyl)spiro[chromeno[2,3-c]pyridine-5,4′-[1,3]oxazol]-2′-amine] | 0.0089 |  | 0.0044 |  | 
C[C@H]1CN(c2cc3c(cn2)Oc2ccc(-c4cccnc4N4CCN(C)[C@@H](C)C4)cc2[C@@]32COC(N)=N2)CCN1C [Example 530, (5S)-3-((3S)-3,4-dimethyl-1-piperazinyl)-7-(2-((3S)-3,4-dimethyl-1-piperazinyl)-3-pyridinyl)spiro[chromeno[2,3-c]pyridine-5,4′-[1,3]oxazol]-2′-amine] | 3.37 |  | 0.195 |  | 
CN1CCN(c2cccc(-c3ccc4c(c3)[C@@]3(COC(N)=N3)c3cc(Cl)ncc3O4)c2)CC1(C)C [Example 531, (5S)-3-chloro-7-(3-(3,3,4-trimethyl-1-piperazinyl)phenyl)spiro[chromeno[2,3-c]pyridine-5,4′-[1,3]oxazol]-2′-amine] | 13.7 |  | 0.334 |  | 
COc1ccc(-c2cc3c(cn2)Oc2ccc(-c4cccnc4F)cc2[C@@]32COC(N)=N2)cc1F [Example 533, (5S)-3-(3-fluoro-4-methoxyphenyl)-7-(2-fluoro-3-pyridinyl)spiro[chromeno[2,3-c]pyridine-5,4′-[1,3]oxazol]-2′-amine] |  |  |  | 0.0014 | 0.0235

The next lines start with results.

IC50 [1, 3] [µM] | IC50 ([2]; average IC50, HEK cells, read-out: HEK cell assay) [µM] | IC50 [2, 4] [µM] | SMILES | IC50 ([1]; BACE 1 FRET assay (uM)) [µM] | IC50 ([2]; Homo sapiens, HEK293, read-out: HEK cell assay (uM), average IC50, HEK cells) [µM]
0.0993 |  | 0.492 | CC(C)(C)COc1ccc2c(c1)[C@@]1(COC(N)=N1)c1cc(-c3cncnc3)c(F)cc1O2 [Example 511, (4R)-7′-(2,2-dimethylpropoxy)-3′-fluoro-2′-(5-pyrimidinyl)spiro[1,3-oxazole-4,9′-xanthen]-2-amine] |  | 
0.103 |  | 0.378 | CC(C)(C)COc1ccc2c(c1)[C@]1(COC(N)=N1)c1cc(-c3cncnc3)c(F)cc1O2 [Example 512, (4S)-7′-(2,2-dimethylpropoxy)-3′-fluoro-2′-(5-pyrimidinyl)spiro[1,3-oxazole-4,9′-xanthen]-2-amine] |  | 
0.0026 |  | 0.0114 | NC1=N[C@]2(CO1)c1cc(C3=CCCOC3)ccc1Oc1cc(F)c(-c3cncnc3)cc12 [Example 514, (4R)-7′-(5,6-dihydro-2H-pyran-3-yl)-3′-fluoro-2′-(5-pyrimidinyl)spiro[1,3-oxazole-4,9′-xanthen]-2-amine] |  | 
7.24 |  | 10 | COc1cc(F)c2c(c1)C1(COC(N)=N1)c1cc(Br)c(F)cc1O2 (stereo not shown) [Example 521, 2′-bromo-3′,5′-difluoro-7′-methoxyspiro[1,3-oxazole-4,9′-xanthen]-2-amine] |  | 
0.884 |  | 1.78 | COc1cc(F)c2c(c1)[C@]1(COC(N)=N1)c1cc(Br)c(F)cc1O2 [Example 523, (4S)-2′-bromo-3′,5′-difluoro-7′-methoxyspiro[1,3-oxazole-4,9′-xanthen]-2-amine] |  | 
1.14 |  | 1.31 | COc1cc(F)c2c(c1)[C@@]1(COC(N)=N1)c1cc(Br)c(F)cc1O2 [Example 524, (4R)-2′-bromo-3′,5′-difluoro-7′-methoxyspiro[1,3-oxazole-4,9′-xanthen]-2-amine] |  | 
0.159 |  | 2.39 | CC(C)(C)COc1cc(F)c2c(c1)[C@@]1(COC(N)=N1)c1cc(-c3cncnc3)c(F)cc1O2 [Example 525, (4R)-7′-(2,2-dimethylpropoxy)-3′,5′-difluoro-2′-(5-pyrimidinyl)spiro[1,3-oxazole-4,9′-xanthen]-2-amine] |  | 
0.002 |  | 0.0091 | CC(C)(C)COc1cc(F)c2c(c1)[C@]1(COC(N)=N1)c1cc(-c3cncnc3)c(F)cc1O2 [Example 526, (4S)-7′-(2,2-dimethylpropoxy)-3′,5′-difluoro-2′-(5-pyrimidinyl)spiroy[1,3-oxazole-4,9′-xanthen]-2-amine] |  | 
0.0553 |  | 2.31 | NC1=N[C@@]2(CO1)c1cc(-c3cccc(Cl)c3)ccc1Oc1cnc(Cl)cc12 [Example 528, (5S)-3-chloro-7-(3-chlorophenyl)spiro[chromeno[2,3-c]pyridine-5,4′-[1,3]oxazol]-2′-amine] |  | 
2.37 |  | 0.169 | COc1ccc2c(c1)[C@@]1(COC(N)=N1)c1cc(N3CCN(C)C(C)(C)C3)cc(F)c1O2 [Example 532, (4S)-4′-fluoro-7′-methoxy-2′-(3,3,4-trimethyl-1-piperazinyl)spiro[1,3-oxazole-4,9′-xanthen]-2-amine] |  | 
0.0005 |  | 0.0266 | NC1=N[C@@]2(CO1)c1cc(-c3cccnc3F)ccc1Oc1cnc(-c3ccc(F)c(F)c3)cc12 [Example 534, (5S)-3-(3,4-difluorophenyl)-7-(2-fluoro-3-pyridinyl)spiro[chromeno[2,3-c]pyridine-5,4′-[1,3]oxazol]-2′-amine] |  | 
